This passage reports IC50 results from BindingDB's records for doi:10.7270/Q25719N6 (The Scripps Research Institute Molecular Screening Center, 2013).

In this assay the target is T1, Fructose-bisphosphate aldolase (Mycobacterium tuberculosis (strain ATCC 25618 / H37Rv), UniProt P9WQA3).
T1 sequence (P9WQA3 whole entry): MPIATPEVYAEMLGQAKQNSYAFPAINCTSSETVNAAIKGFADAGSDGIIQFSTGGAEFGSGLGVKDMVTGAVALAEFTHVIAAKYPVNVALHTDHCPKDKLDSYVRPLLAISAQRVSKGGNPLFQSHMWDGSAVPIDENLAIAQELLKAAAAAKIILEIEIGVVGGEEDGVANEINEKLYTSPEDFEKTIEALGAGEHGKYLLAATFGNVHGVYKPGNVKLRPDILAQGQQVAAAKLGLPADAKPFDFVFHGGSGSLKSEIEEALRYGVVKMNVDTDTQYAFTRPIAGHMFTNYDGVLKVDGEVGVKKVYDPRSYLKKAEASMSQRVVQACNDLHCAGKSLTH

pIC50: −log10 of the molar value.

Turning to `O=C(NCc1cccc(Cl)c1)C1=C2NS(=O)(=O)C=CN2C=CC1` [MLS002162417], the pIC50 is 5.58.
With `N#CC1=C(C2CC2)CC(c2ccccc2)C(C#N)C1=N` (configuration not stated) [SMR000039375] the figure was below 5.00.

What is called pIC50 is the negative decadic logarithm of the IC50, by convention in mol/L. A lower pIC50 goes with a high IC50.
